Reference: ChEMBL document CHEMBL5230157, “The natural anthraquinone dye purpurin exerts antibacterial activity by perturbing the FtsZ assembly” (Bioorg Med Chem, 2021)
Calls of active or inactive are those of the source. The calls are words filed in the database; no cut-off is given here.

How the values were obtained:
[1] = target: T1, Cell division protein FtsZ (Escherichia coli K-12) (UniProt P0A9A6); experiment: Inhibition of Escherichia coli BL21 FtsZ assessed as inhibition of KCl-induced GTPase activity at 20 uM preincubated for 10 mins followed by KCl stimulation and measured after 10 mins by malachite green ammonium molybdate dye based spectroscopic analysis; conditions: time 20.0 min
T1 sequence (whole entry): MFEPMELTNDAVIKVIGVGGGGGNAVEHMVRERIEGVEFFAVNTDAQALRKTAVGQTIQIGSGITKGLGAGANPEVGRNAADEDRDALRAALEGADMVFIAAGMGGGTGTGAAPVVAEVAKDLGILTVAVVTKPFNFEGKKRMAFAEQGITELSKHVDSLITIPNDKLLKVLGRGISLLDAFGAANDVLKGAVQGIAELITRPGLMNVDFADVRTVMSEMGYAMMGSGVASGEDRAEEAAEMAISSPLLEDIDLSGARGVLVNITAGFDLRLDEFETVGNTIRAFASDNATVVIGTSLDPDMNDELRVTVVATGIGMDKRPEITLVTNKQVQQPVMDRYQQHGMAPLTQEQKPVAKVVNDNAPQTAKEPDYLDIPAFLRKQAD

Escherichia coli [2] = experiment: Antibacterial activity against Escherichia coli XL1 assessed as bacterial growth inhibition at 10 uM by spectrophotometric method; type: functional; conditions: read-out: GI
HeLa = experiment: Antiproliferative activity against human HeLa cells assessed as inhibition of cell proliferation at 20 uM incubated for 24 hrs by sulforhodamine B assay; type: functional; parameters: scale not given: the % may be the effect or the level left
[3] = target: T1, Cell division protein FtsZ (Escherichia coli K-12); experiment: Inhibition of Escherichia coli BL21 FtsZ assessed as inhibition of KCl-induced GTPase activity at 80 uM preincubated for 10 mins followed by KCl stimulation and measured after 10 mins by malachite green ammonium molybdate dye based spectroscopic analysis
Escherichia coli [4] = experiment: Antibacterial activity against Escherichia coli XL1 assessed as fold increase in average cell length at 80 uM incubated for 4 hrs in by fluorescent microscopy; type: functional
[5] = target: T1, Cell division protein FtsZ (Escherichia coli K-12); experiment: Binding affinity to Escherichia coli BL21 FtsZ assessed as hydrophobic probe ANS-FtsZ complex fluorescence quenching at 2 uM for 30 mins by fluorescence analysis
[6] = target: T1, Cell division protein FtsZ (Escherichia coli K-12); experiment: Inhibition of KCl-induced Escherichia coli BL21 FtsZ polymerization assessed as decrease in FtsZ polymer average length at 80 uM incubate for 1 hrs by […] staining based fluorescence microscopy
Escherichia coli [7] = experiment: Antibacterial activity against Escherichia coli XL1 assessed as bacterial growth inhibition at 200 uM by spectrophotometric method; type: functional; conditions: read-out: GI
Bacillus subtilis [8] = experiment: Antibacterial activity against Bacillus subtilis 168 assessed as increase in average cell length at 7 uM incubated for 4 hrs in 23% of bacterial cells by fluorescent microscopy; type: functional
Bacillus subtilis [9] = experiment: Antibacterial activity against Bacillus subtilis 168 assessed as fold increase in average cell length at 7 uM incubated for 4 hrs by fluorescent microscopy; type: functional
Bacillus subtilis [10] = experiment: Antibacterial activity against Bacillus subtilis 168 assessed as bacterial growth inhibition at 30 uM by spectrophotometric method; type: functional; conditions: read-out: GI
[11] = target: T1, Cell division protein FtsZ (Escherichia coli K-12); experiment: Inhibition of KCl-induced Escherichia coli BL21 FtsZ polymerization assessed as decrease in FtsZ polymer size at 80 uM incubate for 1 hrs by […] staining based fluorescence microscopy
[12] = target: T1, Cell division protein FtsZ (Escherichia coli K-12); experiment: Inhibition of KCl-induced Escherichia coli BL21 FtsZ polymerization assessed as decrease in FtsZ polymer thickness at 80 uM incubate for 1 hrs by […] staining based fluorescence microscopy
Escherichia coli [13] = experiment: Antibacterial activity against Escherichia coli XL1 assessed as bacterial growth inhibition at 30 uM by spectrophotometric method; type: functional; conditions: read-out: GI
[14] = target: T1, Cell division protein FtsZ (Escherichia coli K-12); experiment: Binding affinity to Escherichia coli BL21 FtsZ assessed as hydrophobic probe ANS-FtsZ complex fluorescence quenching at 5 uM for 30 mins by fluorescence analysis
Bacillus subtilis [15] = experiment: Antibacterial activity against Bacillus subtilis 168 assessed as increase in average cell length at 7 uM incubated for 4 hrs in 82% of bacterial cells by fluorescent microscopy; type: functional
Escherichia coli [16] = experiment: Antibacterial activity against Escherichia coli XL1 assessed as bacterial growth inhibition at 80 uM by spectrophotometric method; type: functional; conditions: read-out: GI
[17] = target: T1, Cell division protein FtsZ (Escherichia coli K-12); experiment: Inhibition of KCl-induced Escherichia coli BL21 FtsZ polymerization at 20 uM incubate for 10 min followed by KCl stimulation by spectrofluorimeter based light-scattering assay
[18] = target: T2, Cell division protein FtsZ (Escherichia coli K-12, UniProt P0A9A6); experiment: Binding affinity to Escherichia coli BL21 FtsZ assessed as dissociation constant of hydrophobic probe ANS-FtsZ complex fluorescence quenching incubated for 30 mins by double reciprocal plot analysis
T2 sequence (P0A9A6 whole entry): T1 sequence (whole entry)

Bacillus subtilis [19] = experiment: Antibacterial activity against Bacillus subtilis 168 assessed as increase in average cell length at 7 uM incubated for 4 hrs in 45% of bacterial cells by fluorescent microscopy; type: functional
Escherichia coli [20] = experiment: Antibacterial activity against Escherichia coli XL1 assessed as bacterial growth inhibition at 20 uM by spectrophotometric method; type: functional; conditions: read-out: GI
Tubulin (Homo sapiens) = Tubulin (Homo sapiens) (UniProt P68371+Q9H4B7+P0DPH7+P68366+Q13509+Q71U36+P04350+Q3ZCM7+P07437+P68363+Q9BQE3+Q6PEY2+Q13885+Q9BVA1+Q9BUF5); experiment: Inhibition of tubulin polymerization […] assessed as effect on MAP rich- tubulin polymer mass at 20 to 80 uM preincubated for 10 mins followed by GTP addition and measured after 1 hrs by Bradford assay; conditions: dose 20-80 µM, time 70.0 min
[21] = target: T1, Cell division protein FtsZ (Escherichia coli K-12); experiment: Binding affinity to Escherichia coli BL21 FtsZ assessed as hydrophobic probe ANS-FtsZ complex fluorescence quenching at 80 uM for 30 mins by fluorescence analysis
[22] = target: T3, Cell division protein FtsZ (Bacillus subtilis, UniProt A5Z1V5); experiment: Binding affinity to Bacillus subtilis FtsZ assessed as dissociation constant of intrinsic tryptophan quenching incubated for 30 mins by double reciprocal plot analysis
T3 sequence (A5Z1V5 whole entry): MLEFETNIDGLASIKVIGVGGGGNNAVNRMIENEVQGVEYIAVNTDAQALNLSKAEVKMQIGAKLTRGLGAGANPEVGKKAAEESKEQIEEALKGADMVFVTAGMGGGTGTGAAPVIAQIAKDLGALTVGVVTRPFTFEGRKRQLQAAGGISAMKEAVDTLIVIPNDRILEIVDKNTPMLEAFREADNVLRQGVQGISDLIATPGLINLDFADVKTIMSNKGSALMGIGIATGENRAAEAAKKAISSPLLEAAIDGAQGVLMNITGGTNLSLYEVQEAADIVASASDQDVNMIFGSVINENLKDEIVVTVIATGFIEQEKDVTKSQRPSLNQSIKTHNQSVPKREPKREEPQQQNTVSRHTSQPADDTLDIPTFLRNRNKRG

Escherichia coli [23] = experiment: Antibacterial activity against Escherichia coli XL1 assessed as bacterial growth inhibition at 300 uM by spectrophotometric method; type: functional; conditions: read-out: GI
Bacillus subtilis [24] = experiment: Antibacterial activity against Bacillus subtilis 168 assessed as increase in average cell length at 7 uM incubated for 4 hrs in 69% of bacterial cells by fluorescent microscopy; type: functional

Compound `O=C1c2ccccc2C(=O)c2c(O)c(O)cc(O)c21` [PURPURIN] has an inhibition [1] of 15.9%, an inhibition of growth at 10 µM (Escherichia coli [2]) of 12.5% and an Activity (HeLa) of 14%. For the same compound, the inhibition [3] was 21.9%, the “fold change (FC)” value (Escherichia coli [4]) was 4 and the Activity [5] was 14%. The inhibition [6] was “Active”, the inhibition of growth at 200 µM (Escherichia coli [7]) was 67.8% and the Activity (Bacillus subtilis [8]) was 50.1 um. The “fold change (FC)” value (Bacillus subtilis [9]) was 10, the inhibition of growth at 30 µM (Bacillus subtilis [10]) was 100% and the inhibition [11] was “Active”. For the same compound, the inhibition [12] was “Active”, the inhibition of growth at 30 µM (Escherichia coli [13]) was 25.6% and the Activity [14] was 25%. It also gave an Activity (Bacillus subtilis [15]) of 20.1 um, an inhibition of growth at 80 µM (Escherichia coli [16]) of 38% and an inhibition [17] of 20%. The Kd [18] was 11 µM, the Activity (Bacillus subtilis [19]) was 10.1 um and the inhibition of growth at 20 µM (Escherichia coli [20]) was 18.5%. For the same compound, the inhibition (Tubulin (Homo sapiens)) was “inactive”, the Activity [21] was 81% and the Kd [22] was 5.2 µM. It also gave an inhibition of growth at 300 µM (Escherichia coli [23]) of 94.7% and an Activity (Bacillus subtilis [24]) of 15.1 um.
